# Source: patent US10842851B2, “Relaxin for treating patients afflicted of impaired glucose tolerance” (Immundiagnostik AG, priority 2012, dated 2020)
# What was measured:
# [1] = test system: patients having type II diabetes or impaired glucose tolerance; experiment: HOMA-index in human patients under i.v. H2 relaxin; format: in vivo; details: i.v. over 16 hrs
# Excerpt: In a study approved by the local ethical committee (Charité, Berlin, Germany) twelve patients (n=12) having type II diabetes or impaired glucose tolerance received intravenous synthetic H2 relaxin over a period of 16 hrs followed by a 24-hr follow-up. The anti-diabetic treatment of those patients was not varied. The improved HOMA-2 model used was in the present example because it reflects better human physiology. A HOMA of >2 indicates a potential insulin resistance; a HOMA of >2.5 beginning insulin resistance and a HOMA>5.0 is an average value of insulin resistance in untreated patients with manifest type-2 diabetes.
# Of those twelve patients in this study two patients received sequential treatment for 8 hours each with dosages equivalent to 10 and 30 μg/kg of subject body weight per day, 6 patients received sequential treatment with 240 and 480 μg/kg of subject body weight per day, and another 4 patients received a constant infusion of 960 μg/kg of subject body weight per day. This was completed by follow-up determinations of glucose and insulin levels in serum 24 hours post termination of the i.v. relaxin administration.
# [2] = test system: Zucker Diabetic Fatty rats; experiment: HOMA-index in ZDF rats under sc relaxin; format: in vivo, rat; details: 10-week old male ZDF rats, sc 500 μg/kg per day, within the 48-hour period
# Excerpt: The homeostatic model assessment (HOMA=Insulin (μU/mi)×Glucose (mmol/l)/22.5) allows a quantification of insulin resistance and beta-cell function on the basis of mathematical equations describing glucose regulation as a feedback loop (see Matthews D R at al. Diabetologia 1985; 28(7): 412-9); Turner R C et al, Metabolism 1985; 28 (11): 1086-96). In order to assess the effects of relaxin on a diabetic metabolism we determined the HOMA of 10-week old male Zucker Diabetic Fatty rats (#25) pre-, during and post subcutanous administration of porcine relaxin (500 μg/kg rat per day). Thus, we determined the glucose and insulin levels in serum of 25 ZDF rats prior and 48 hours after sc administration of porcine relaxin. This was completed by follow-up determinations of glucose and insulin concentrations in serum 48 hours post the termination of the administration of porcine relaxin.
# [3] = cited from earlier work
# [4] = Effect of relaxin on glucose levels in blood; details: in vivo
# [5] = over the entire dose range, previous pilot study (Dschietzig et al. 2009); cited from earlier work
# [6] = test system: rat insulinoma cells (INS-1 cells); experiment: Insulin secretion of INS-1 cells under sustained glucose concentrations (rat insulin ELISA); format: cell-based
# Experimental: In a further study we examined whether porcine relaxin has any effect on insulin expression and/or secretory capacity of pancreatic beta-cells. 2.5×10^5 rat insulinoma cells (INS-1 cells; see Mergler S et al, in Cellular Signalling (2008), doi: 10.1016/j.cellsig.2008.08.015) were plated in a 24-well plate and grown for three days in […] medium with supplements (Moore G. E. et. al., Culture of Normal Human Leukoctyes.” JAMA, v. 199, 519-524 (1967). On the day of the experiment, the medium was removed, and the INS-1 cells were washed three times and then preincubated for 30 min in KRB (Krebs-Ringer buffer: 115 mM NaCl, 5.9 mM KCl, 1.2 mM MgCl2, 1.2 mM NaH2PO4, 1.2 mM Na2PO4, 2.5 mM CaCl2, 25 mM NaHCO3, pH 7.4) comprising 0.5% BSA and 3.3 mM glucose. Cells were washed again with phosphate buffered saline (PBS: 137 mM NaCl, 2.7 mM KCl, 12 mM phosphate, pH 7.4) and incubated with different physiological and pathological glucose concentrations (2.8, 5.6, 11.2, 16.7, 33.2 mmol/L) for 48 hrs. After another washing, the amounts of insulin secreted by the INS-1 cells into the supernatant over another 48 hrs under the very same glucose conditions were determined using a rat insulin ELISA kit (units: ng/dl) (Immundiagnostik AG, Bensheim, Del.—Article No. KA80INSRT1). […]
substance,measurement,setting,value
human relaxin-2 (H2 relaxin),homeostatic model assessment (HOMA) in each diabetic patient (FIG. 2A),"[1]; 10 to 960 μg/kg per day, diabetic patients",improved
same,homeostatic model assessment (HOMA) in non-diabetic subjects,[1]; subjects having an initial HOMA of less than 2.0,no or little impact
porcine relaxin-1 [porcine RLX],HOMA value of each animal (FIG. 1A),[2],reduced HOMA value
relaxin,half-life in vivo,[3],about two
same,direct effect on glucose levels in blood,[4],not found any direct effect
same,clinically adverse effects,[5],no clinically adverse effects were observed
same,insulin secretion (as determined in cell supernatants),"[6]; 10 nM porcine relaxin-1, baseline and high-glucose conditions, secretion period of 48 hours, INS-1 cells",increased insulin secretion
same,high glucose-induced down-regulation of insulin expression and/or secretory capacity,"[6]; 10 nmol/L porcine relaxin-1, cultured rat INS-1 cells, n=6, P<0.05 vs. control",efficient in preventing
